Measurements from ChEMBL document CHEMBL1132395, “Inhibition of herpes proteases and antiviral activity of 2-substituted thieno[2,3-d]oxazinones” (Bioorg Med Chem Lett, 1999).
Activity calls are given as the source filed them. No cut-off for these calls is given here.

Key:
[1] = target: T1, Capsid scaffolding protein (Human herpesvirus 2 (strain HG52) (HHV-2) (Human herpes simplex virus2), UniProt P89449); test: Inhibitory activity against herpes simplex virus type 2 (HSV-2) protease was determined using quenched fluorescence assay
T1 sequence (P89449 whole entry): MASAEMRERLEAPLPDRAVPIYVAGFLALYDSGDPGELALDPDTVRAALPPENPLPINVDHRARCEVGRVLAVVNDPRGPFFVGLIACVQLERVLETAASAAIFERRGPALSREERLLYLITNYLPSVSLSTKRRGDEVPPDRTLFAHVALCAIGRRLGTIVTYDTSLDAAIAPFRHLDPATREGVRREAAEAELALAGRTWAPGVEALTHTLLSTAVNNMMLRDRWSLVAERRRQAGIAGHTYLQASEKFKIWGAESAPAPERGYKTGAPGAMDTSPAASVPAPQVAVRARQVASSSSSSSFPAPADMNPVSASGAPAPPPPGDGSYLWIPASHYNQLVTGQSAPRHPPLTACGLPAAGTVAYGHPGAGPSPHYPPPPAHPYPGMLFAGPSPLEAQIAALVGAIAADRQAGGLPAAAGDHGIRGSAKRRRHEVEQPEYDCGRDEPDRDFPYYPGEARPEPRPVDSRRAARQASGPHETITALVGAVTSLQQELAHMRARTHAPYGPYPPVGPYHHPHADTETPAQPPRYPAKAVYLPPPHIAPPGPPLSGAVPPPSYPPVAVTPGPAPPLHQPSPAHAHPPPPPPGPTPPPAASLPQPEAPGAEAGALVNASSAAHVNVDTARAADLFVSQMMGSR

[2] = tested on: Human alphaherpesvirus 3; test: Inactivation rate against Varicella Zoster Virus (VZV) was determined; type: functional
[3] = tested on: Human alphaherpesvirus 2; test: Inactivation rate against herpes simplex type 2 (HSV-2) was determined; type: functional
[4] = tested on: Human alphaherpesvirus 2; test: Cytotoxicity against herpes simplex virus type 2 (HSV-2); type: functional
[5] = tested on: MRC5; test: Cytotoxicity by using MRC-5 cell culture assay (XTT); type: functional; conditions: Homo sapiens, read-out: TC50 (the source's name)
[6] = tested on: Human alphaherpesvirus 2; test: Cytotoxicity against herpes simplex virus type 2 (HSV-2) infected cells by pulse chase (PC) assay; type: functional
[7] = tested on: Human alphaherpesvirus 2; test: Cytotoxicity in herpes simplex virus type 2 (HSV-2); type: functional
[8] = tested on: Human alphaherpesvirus 2; test: Inhibitory activity against herpes simplex virus type 2 (HSV-2) herpes protease was determined using quenched fluorescence assay; type: functional, organism-based
[9] = tested on: Cytomegalovirus; test: Inhibitory activity against cytomegalovirus (CMV) herpes protease was determined using quenched fluorescence assay; type: functional, organism-based; conditions: Human betaherpesvirus 5
[10] = tested on: Cytomegalovirus; test: Inhibitory activity against cytomegalovirus (CMV) herpes was determined using quenched fluorescence assay; type: functional, organism-based; conditions: Human betaherpesvirus 5
[11] = tested on: Human alphaherpesvirus 2; test: Cytotoxicity in herpes simplex virus type 2 (HSV-2); NI= no inhibition; type: functional, organism-based
[12] = tested on: Human alphaherpesvirus 2; test: Inhibitory activity against herpes simplex virus type 2 (HSV-2) protease was determined using quenched fluorescence assay (IA=inactive up to 20 uM); type: functional, organism-based
[13] = tested on: Cytomegalovirus; test: Inhibitory activity against cytomegalovirus (CMV) protease was determined using quenched fluorescence assay (IA=inactive up to 20 uM); type: functional, organism-based
[14] = tested on: Varicella zoster virus protease (Varicella-zoster virus); test: Inhibitory activity against Varicella Zoster Virus (VZV) protease was determined using quenched fluorescence assay (IA=inactive up to 20 uM)

`Cc1csc2nc([C@H](C)NC(=O)/C=C/c3cccc(Cl)c3)oc(=O)c12` showed an IC50 [1] of 980 nM.

For `Cc1csc2nc([C@H](C)NC(=O)/C=C/c3ccccc3)oc(=O)c12`, the “K obs / 1” value [2] was 44000 M⁻¹ s⁻¹, the “K obs / 1” value [3] was 65000 M⁻¹ s⁻¹ and the IC50 [1] was 300 nM. It also gave a PC50 [4] of 7.5 µM, a CC50 [5] of 56000 nM and a TC50 [6] greater than 250000 nM.

`Cc1csc2nc([C@H](C)NC(=O)/C=C/c3c(F)cccc3F)oc(=O)c12` gave an IC50 [1] of 630 nM.

With `Cc1csc2nc([C@H](C)NC(=O)/C=C/c3c(F)cccc3Cl)oc(=O)c12` the IC50 [1] was 520 nM.

Molecule `Cc1csc2nc([C@H](C)NC(=O)/C=C/c3cccn3C)oc(=O)c12` has an IC50 [1] of 1000 nM.

For `Cc1csc2nc([C@H](C)NC(=O)/C=C/c3ccc(Br)s3)oc(=O)c12`, the PC50 [7] was 8 µM, the “K obs / 1” value [2] was 63000 M⁻¹ s⁻¹ and the “K obs / 1” value [3] was 12000 M⁻¹ s⁻¹. The IC50 [1] was 270 nM, the CC50 [5] was 83000 nM and the TC50 [6] was greater than 250000 nM.

In the case of `Cc1csc2nc([C@H](C)NC(=O)/C=C/c3c(Cl)cccc3Cl)oc(=O)c12`, the “K obs / 1” value [2] is reported as 33000 M⁻¹ s⁻¹, the “K obs / 1” value [3] is reported as 33000 M⁻¹ s⁻¹ and the IC50 [1] is reported as 1970 nM.

Work on `Cc1csc2nc([C@H](C)NC(=O)/C=C/c3ccc([N+](=O)[O-])cc3)oc(=O)c12` yielded an IC50 [1] of 940 nM.

`Cc1csc2nc([C@H](C)NC(=O)/C=C/c3ccc(Br)o3)oc(=O)c12` gave an IC50 [1] of 490 nM.

In the case of `COc1cc(/C=C/C(=O)N[C@@H](C)c2nc3scc(C)c3c(=O)o2)cc(OC)c1`, the IC50 [1] is reported as 350 nM.

`Cc1csc2nc([C@H](C)NC(=O)/C=C(\Sc3ccccc3)c3ccccc3)oc(=O)c12` was tested, and the IC50 [8] was 3100 nM and the IC50 [9] was 1900 nM.

With `Cc1csc2nc([C@H](C)NC(=O)/C=C/c3ccccc3Br)oc(=O)c12` the IC50 [1] was 480 nM.

Molecule `Cc1csc2nc([C@H](C)NC(=O)C=C(c3ccccc3)c3ccccc3)oc(=O)c12` has an IC50 [1] of 500 nM.

For `Cc1csc2nc([C@H](C)NC(=O)/C=C/c3ccccc3[N+](=O)[O-])oc(=O)c12`, the IC50 [1] was 720 nM.

With `Cc1ccc(/C=C/C(=O)N[C@@H](C)c2nc3scc(C)c3c(=O)o2)s1` the IC50 [1] was 650 nM.

`Cc1csc2nc([C@H](C)NC(=O)/C=C/c3cc(Br)cs3)oc(=O)c12` gave an IC50 [1] of 190 nM.

With `Cc1csc2nc([C@H](C)NC(=O)/C=C/c3ccc(Cl)s3)oc(=O)c12` the PC50 [7] was 18 µM, the “K obs / 1” value [2] was 60000 M⁻¹ s⁻¹ and the “K obs / 1” value [3] was 58000 M⁻¹ s⁻¹. It also gave an IC50 [1] of 210 nM, a CC50 [5] of 130000 nM and a TC50 [6] greater than 250000 nM.

With `COc1cccc(OC)c1/C=C/C(=O)N[C@@H](C)c1nc2scc(C)c2c(=O)o1` the IC50 [1] was 1300 nM.

`Cc1ccccc1/C=C/C(=O)N[C@@H](C)c1nc2scc(C)c2c(=O)o1` gave an IC50 [1] of 1500 nM and an IC50 [10] of 20000 nM.

In the case of `Cc1csc2nc([C@H](C)NC(=O)/C=C/c3ccsc3)oc(=O)c12`, the IC50 [1] is reported as 330 nM and the IC50 [10] is reported as 380 nM.

With `Cc1csc2nc([C@H](C)NC(=O)/C=C/c3sccc3Br)oc(=O)c12` the IC50 [1] was 250 nM.

In the case of `Cc1csc2nc([C@H](C)NC(=O)/C=C(\c3ccccc3)c3cccs3)oc(=O)c12`, the IC50 [1] is reported as 260 nM.

Molecule `Cc1csc2nc([C@H](C)NC(=O)/C=C/c3ccc([N+](=O)[O-])s3)oc(=O)c12` has an IC50 [1] of 570 nM.

`Cc1csc2nc([C@H](C)NC(=O)/C=C/c3ccc(O)cc3Cl)oc(=O)c12` was tested, and the PC50 [11] was “inactive”, the IC50 [1] was 230 nM and the CC50 [5] was 100000 nM. For the same molecule, the TC50 [6] was 56000 nM and the IC50 [10] was 190 nM.

`Cc1csc2nc([C@H](C)NC(=O)/C=C/c3ccc(C=O)cc3)oc(=O)c12` gave an IC50 [1] of 530 nM.

With `Cc1cc(/C=C/C(=O)N[C@@H](C)c2nc3scc(C)c3c(=O)o2)c(C)s1` the PC50 [7] was 12 µM, the “k obs / 1” value [2] was 76000 M⁻¹ s⁻¹ and the “K obs / 1” value [3] was 53000 M⁻¹ s⁻¹. For the same molecule, the IC50 [1] was 190 nM, the CC50 [5] was 180000 nM and the TC50 [6] was 130000 nM.

For `Cc1csc2nc([C@H](C)NC(=O)/C=C/c3ccccc3Cl)oc(=O)c12`, the IC50 [1] was 610 nM.

Molecule `Cc1csc2nc([C@H](C)NC(=O)/C=C/c3ccccn3)oc(=O)c12` has an IC50 [1] of 500 nM.

In the case of `CCOc1ccccc1/C=C/C(=O)N[C@@H](C)c1nc2scc(C)c2c(=O)o1`, the IC50 [1] is reported as 560 nM.

`Cc1ccsc1/C=C/C(=O)N[C@@H](C)c1nc2scc(C)c2c(=O)o1` showed an IC50 [1] of 330 nM.

In the case of `Cc1csc2nc([C@H](C)NC(=O)/C=C/c3ccnc4ccccc34)oc(=O)c12`, the “K obs / 1” value [2] is reported as 45000 M⁻¹ s⁻¹, the “K obs / 1” value [3] is reported as 76000 M⁻¹ s⁻¹ and the IC50 [1] is reported as 250 nM.

With `Cc1csc2nc([C@H](C)NC/C=C/c3ccccc3)oc(=O)c12` the IC50 [12] was “No inhibition”, the IC50 [13] was “No inhibition” and the IC50 [14] was “No inhibition”.

In the case of `Cc1csc2nc([C@H](C)NC(=O)/C=C/c3ccc(N(C)C)cc3)oc(=O)c12`, the IC50 [1] is reported as 570 nM.

`Cc1csc2nc([C@H](C)NC(=O)C=C(c3cccs3)c3cccs3)oc(=O)c12` was tested, and the PC50 [11] was “inactive”, the “K obs / 1” value [3] was 120000 M⁻¹ s⁻¹ and the IC50 [1] was 110 nM. It also gave a CC50 [5] of 95000 nM and a TC50 [6] of 21000 nM.

Work on `Cc1csc2nc([C@H](C)NC(=O)/C=C/c3ccsc3Br)oc(=O)c12` yielded an IC50 [1] of 200 nM.
